# Results: patent publication US20240360157A1, “TYK2 INHIBITORS” (BIOGEN MA INC., priority 2021, published 2024)
# What was measured:
# Assay type in all cases: biochemical
# [1] = target: human JAK1 catalytic kinase (JH1) domain (Homo sapiens (Human), UniProt P23458); test: ADP-Glo Kinase Assay, recombinant JAK1 catalytic kinase (JH1) domain; conditions: recombinant JH1 domain 4 nM, 35 μM ATP, JAK3-342 peptide, mean, read-out: JAK1 biochem IC50 (nM) Mean
# Procedure, shortened: (§1)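 Kinase 4 nM JAK1 / 0.2 nM JAK2 / 0.3 nM JAK3 / 2 nM TYK2; 50 μM peptide; 100 min. Unused ATP depleted, ADP→ATP, luciferase luminescence. 11-pt 3-fold series from 10 or 1 μM; normalized, 4PL fit → IC50.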
# [2] = target: human JAK2 catalytic kinase (JH1) domain (Homo sapiens (Human), UniProt O60674); test: ADP-Glo Kinase Assay, recombinant JAK2 catalytic kinase (JH1) domain; conditions: recombinant JH1 domain 0.2 nM, 15 μM ATP, JAK3-974 peptide, mean, read-out: JAK2 biochem IC50 (nM) Mean
# Procedure, shortened: as §1
# [3] = target: human TYK2 catalytic kinase (JH1) domain (Homo sapiens (Human), UniProt P29597); test: ADP-Glo Kinase Assay, recombinant TYK2 catalytic kinase (JH1) domain; conditions: recombinant JH1 domain 2 nM, 10 μM ATP, JAK3-974 peptide, mean, read-out: TYK2 biochem IC50 (nM) Mean
# Procedure, shortened: as §1
# [4] = target: human JAK3 catalytic kinase (JH1) domain (Homo sapiens (Human), UniProt P52333); test: ADP-Glo Kinase Assay, recombinant JAK3 catalytic kinase (JH1) domain; conditions: recombinant JH1 domain 0.3 nM, 4 μM ATP, JAK3-974 peptide, mean, read-out: JAK3 biochem IC50 (nM) Mean
# Procedure, shortened: as §1
# human TYK2 catalytic kinase (JH1) domain, sequence (P29597 897-1176): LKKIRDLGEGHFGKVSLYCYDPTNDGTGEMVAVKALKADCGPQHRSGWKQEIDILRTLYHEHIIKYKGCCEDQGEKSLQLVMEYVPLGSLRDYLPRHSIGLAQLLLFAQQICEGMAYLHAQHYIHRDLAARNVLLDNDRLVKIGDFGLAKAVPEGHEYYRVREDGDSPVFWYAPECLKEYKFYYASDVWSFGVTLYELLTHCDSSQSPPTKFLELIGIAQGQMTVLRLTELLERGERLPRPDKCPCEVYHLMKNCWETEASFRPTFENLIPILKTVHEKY
# human JAK1 catalytic kinase (JH1) domain, sequence (P23458 875-1153): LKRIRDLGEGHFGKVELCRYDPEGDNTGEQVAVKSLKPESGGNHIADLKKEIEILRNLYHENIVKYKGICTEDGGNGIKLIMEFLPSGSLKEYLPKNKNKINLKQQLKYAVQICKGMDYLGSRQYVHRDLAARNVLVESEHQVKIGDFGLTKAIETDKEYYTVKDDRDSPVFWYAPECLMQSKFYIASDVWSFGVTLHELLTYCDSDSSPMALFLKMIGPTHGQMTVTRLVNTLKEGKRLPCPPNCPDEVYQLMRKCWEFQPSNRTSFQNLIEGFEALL
# human JAK3 catalytic kinase (JH1) domain, sequence (P52333 822-1111): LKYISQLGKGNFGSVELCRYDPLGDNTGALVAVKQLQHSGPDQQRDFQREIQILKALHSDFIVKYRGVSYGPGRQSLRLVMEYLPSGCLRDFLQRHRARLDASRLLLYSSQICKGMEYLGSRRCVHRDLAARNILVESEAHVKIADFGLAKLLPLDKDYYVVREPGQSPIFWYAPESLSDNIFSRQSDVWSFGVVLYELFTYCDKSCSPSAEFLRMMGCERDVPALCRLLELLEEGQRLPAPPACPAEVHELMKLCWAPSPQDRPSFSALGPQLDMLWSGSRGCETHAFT
# human JAK2 catalytic kinase (JH1) domain, sequence (O60674 849-1124): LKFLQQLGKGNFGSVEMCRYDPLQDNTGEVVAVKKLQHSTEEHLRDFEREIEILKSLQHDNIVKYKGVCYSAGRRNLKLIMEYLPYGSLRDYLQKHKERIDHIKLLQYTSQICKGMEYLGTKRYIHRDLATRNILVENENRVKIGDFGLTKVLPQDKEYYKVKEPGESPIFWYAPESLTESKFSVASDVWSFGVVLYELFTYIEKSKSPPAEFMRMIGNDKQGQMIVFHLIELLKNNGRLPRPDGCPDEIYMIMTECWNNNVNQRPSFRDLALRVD
SMILES,IC50 [1],IC50 [2],IC50 [3],IC50 [4]
"O=C([C@@H]1C[C@H]1F)N1C2CCC1CN(c1ccnc3[nH]c(C4CCC4)nc13)C2 [Example 209, (3-(2-cyclobutyl-3H-imidazo[4,5-b]pyridin-7-yl)-3,8-diazabicyclo[3.2.1]octan-8-yl)((1S,2R)-2-fluorocyclopropyl)methanone]",1710 nM,8500 nM,358 nM,8590 nM
"O=C([C@@H]1CC1(F)F)N1C2CCC1CN(c1ncnc3[nH]c(-c4cnn(C(F)F)c4)cc13)C2 [Example 222, ((S)-2,2-difluorocyclopropyl)(3-(6-(1-(difluoromethyl)-1H-pyrazol-4-yl)-7H-pyrrolo[2,3-d]pyrimidin-4-yl)-3,8-diazabicyclo[3.2.1]octan-8-yl)methanone]",132 nM,128 nM,5.7 nM,999 nM
"Cc1cc(-c2nc3c(N4CC5CCC(C4)N5C(=O)[C@@H]4C[C@H]4F)ccnc3[nH]2)ccn1 [Example 202, ((1S,2R)-2-fluorocyclopropyl)(3-(2-(2-methylpyridin-4-yl)-3H-imidazo[4,5-b]pyridin-7-yl)-3,8-diazabicyclo[3.2.1]octan-8-yl)methanone]",5 nM,14 nM,2.5 nM,199 nM
"O=C([C@@H]1C[C@H]1F)N1C2CCC1CN(c1ccnc3[nH]c(-c4ccnnc4)nc13)C2 [Example 207, ((1S,2R)-2-fluorocyclopropyl)(3-(2-(pyridazin-4-yl)-3H-imidazo[4,5-b]pyridin-7-yl)-3,8-diazabicyclo[3.2.1]octan-8-yl)methanone]",126 nM,150 nM,39.6 nM,2680 nM
COc1ccc(-c2cc3c(N4CC5CCC(C4)N5C(=O)C4CC4)ncnn3c2)cn1 [Example 178],2020 nM,10000 nM,719 nM,6270 nM
"O=C(C1CC1)N1C2CCC1CN(c1ncnn3cc(-c4cnn([C@H]5CCOC5)c4)cc13)C2 [Example 157, cyclopropyl(3-(6-(1-((S)-tetrahydrofuran-3-yl)-1H-pyrazol-4-yl)pyrrolo[2,1-f][1,2,4]triazin-4-yl)-3,8-diazabicyclo[3.2.1]octan-8-yl)methanone]",1380 nM,2270 nM,151 nM,2250 nM
"Cn1cc(-c2cn3ncc(F)c(N4CC5CCC(C4)N5C(=O)[C@@H]4C[C@H]4F)c3n2)cn1 (stereo in doubt) [Example 141, (3-(7-fluoro-2-(1-methyl-1H-pyrazol-4-yl)imidazo[1,2-b]pyridazin-8-yl)-3,8-diazabicyclo[3.2.1]octan-8-yl)((1S,2R)-2-fluorocyclopropyl)methanone]",57 nM,97 nM,9.4 nM,285 nM
CCn1cc(-c2cc3c(N4CC5CCC(C4)N5C(=O)C4CC4)ncnn3c2)cn1 [Example 147],974 nM,2960 nM,147 nM,2090 nM
"Cn1cc(-c2cc3c(N4CC5CCC(C4)N5C(=O)C4(F)CC4)ccnc3[nH]2)cn1 [Example 240, (1-fluorocyclopropyl)(3-(2-(1-methyl-1H-pyrazol-4-yl)-1H-pyrrolo[2,3-b]pyridin-4-yl)-3,8-diazabicyclo[3.2.1]octan-8-yl)methanone]",44 nM,42 nM,4.4 nM,35 nM
"O=C(C1CC1)N1C2CCC1CN(c1c(F)cnn3cc(-c4cnn(C(F)F)c4)cc13)C2 [Example 140, cyclopropyl(3-(6-(1-(difluoromethyl)-1H-pyrazol-4-yl)-3-fluoropyrrolo[1,2-b]pyridazin-4-yl)-3,8-diazabicyclo[3.2.1]octan-8-yl)methanone]",834 nM,1480 nM,56 nM,738 nM
"O=C([C@@H]1C[C@H]1F)N1C2CCC1CN(c1ccnn3cc(-c4ccc(C(F)F)nc4)cc13)C2 [Example 116, (3-(6-(6-(difluoromethyl)pyridin-3-yl)pyrrolo[1,2-b]pyridazin-4-yl)-3,8-diazabicyclo[3.2.1]octan-8-yl)((1S,2R)-2-fluorocyclopropyl)methanone]",44 nM,41 nM,2.6 nM,847 nM
"Cn1cc(-c2cc3c(N4CC5CCC(C4)N5C(=O)[C@@H]4C[C@H]4F)ncnn3c2)c(F)n1 [Example 96, (3-(6-(3-fluoro-1-methyl-1H-pyrazol-4-yl)pyrrolo[2,1-f][1,2,4]triazin-4-yl)-3,8-diazabicyclo[3.2.1]octan-8-yl)((1S,2R)-2-fluorocyclopropyl)methanone]",718 nM,422 nM,13.7 nM,3270 nM
"Cn1cc(-c2cc3c(N4CC5CCC(C4)N5C(=O)[C@H]4CC4(F)F)ncnn3c2)cn1 [Example 84, ((R)-2,2-difluorocyclopropyl)(3-(6-(1-methyl-1H-pyrazol-4-yl)pyrrolo[2,1-f][1,2,4]triazin-4-yl)-3,8-diazabicyclo[3.2.1]octan-8-yl)methanone]",1800 nM,1220 nM,55 nM,6890 nM
Cn1cc(-c2nc3c(N4CC5CCC(C4)N5S(=O)(=O)C4CC4)ccnc3[nH]2)cn1 [Example 195],194 nM,38 nM,20.6 nM,306 nM
O=C(C1CC1)N1C2CCC1CN(c1ncnn3cc(-c4ccncc4)cc13)C2 [Example 181],1040 nM,7860 nM,229 nM,5520 nM
"O=C([C@@H]1C[C@H]1F)N1C2CCC1CN(c1ccnn3cc(-c4cnn(C(F)F)c4)cc13)C2 [Example 17, (3-(6-(1-(difluoromethyl)-1H-pyrazol-4-yl)pyrrolo[1,2-b]pyridazin-4-yl)-3,8-diazabicyclo[3.2.1]octan-8-yl)((1S,2R)-2-fluorocyclopropyl)methanone]",37 nM,36 nM,1 nM,437 nM
"Cn1cc(-c2cc3c(N4CC5CCC(C4)N5C(=O)[C@@H]4C[C@H]4F)ncnn3c2)cn1 [Example 82, ((1S,2R)-2-fluorocyclopropyl)(3-(6-(1-methyl-1H-pyrazol-4-yl)pyrrolo[2,1-f][1,2,4]triazin-4-yl)-3,8-diazabicyclo[3.2.1]octan-8-yl)methanone]",1650 nM,8860 nM,400 nM,3060 nM
"Cc1c(-c2cnn(C)c2)[nH]c2nccc(N3CC4CCC(C3)N4C(=O)[C@@H]3C[C@H]3F)c12 [Example 249, ((1S,2R)-2-fluorocyclopropyl)(3-(3-methyl-2-(1-methyl-1H-pyrazol-4-yl)-1H-pyrrolo[2,3-b]pyridin-4-yl)-3,8-diazabicyclo[3.2.1]octan-8-yl)methanone]",1240 nM,251 nM,19 nM,2810 nM
"Cn1ncc(-c2cc3c(N4CC5CCC(C4)N5C(=O)[C@@H]4C[C@H]4F)ncnn3c2)c1F [Example 97, (3-(6-(5-fluoro-1-methyl-1H-pyrazol-4-yl)pyrrolo[2,1-f][1,2,4]triazin-4-yl)-3,8-diazabicyclo[3.2.1]octan-8-yl)((1S,2R)-2-fluorocyclopropyl)methanone]",1320 nM,1380 nM,76.8 nM,4040 nM
"O=C(C1CC1)N1C2CCC1CN(c1ncnc3[nH]c(-c4cnn(C(F)F)c4)cc13)C2 [Example 219, cyclopropyl(3-(6-(1-(difluoromethyl)-1H-pyrazol-4-yl)-7H-pyrrolo[2,3-d]pyrimidin-4-yl)-3,8-diazabicyclo[3.2.1]octan-8-yl)methanone]",232 nM,752 nM,23.6 nM,698 nM
"CC(C)C(=O)N1C2CCC1CN(c1ncnn3cc(-c4cnn(C(F)F)c4)cc13)C2 [Example 42, 1-(3-(6-(1-(difluoromethyl)-1H-pyrazol-4-yl)pyrrolo[2,1-f][1,2,4]triazin-4-yl)-3,8-diazabicyclo[3.2.1]octan-8-yl)-2-methylpropan-1-one]",5220 nM,7960 nM,466 nM,9510 nM
"Cn1cc(-c2cc3c(N4CC5CCC(C4)N5C(=O)C4CC4)ncnn3c2)nn1 [Example 186, cyclopropyl(3-(6-(1-methyl-1H-1,2,3-triazol-4-yl)pyrrolo[2,1-f][1,2,4]triazin-4-yl)-3,8-diazabicyclo[3.2.1]octan-8-yl)methanone]",≥ 10000 nM,9850 nM,845 nM,≥ 10000 nM
"Cn1cc(-c2cc3c(N4CC5CCC(C4)N5C(=O)CC(F)(F)F)ncnn3c2)cn1 [Example 59, 3,3,3-trifluoro-1-(3-(6-(1-methyl-1H-pyrazol-4-yl)pyrrolo[2,1-f][1,2,4]triazin-4-yl)-3,8-diazabicyclo[3.2.1]octan-8-yl)propan-1-one]",3500 nM,9730 nM,652 nM,6940 nM
"O=C([C@@H]1C[C@H]1F)N1C2CCC1CN(c1ccnc3[nH]c(C4CCOC4)nc13)C2 (stereo partly drawn) [Example 211, ((1S,2R)-2-fluorocyclopropyl)(3-(2-(tetrahydrofuran-3-yl)-3H-imidazo[4,5-b]pyridin-7-yl)-3,8-diazabicyclo[3.2.1]octan-8-yl)methanone]",5780 nM,10000 nM,676 nM,10000 nM
